Test: Stability of angiotensin peptides in binding buffer (reverse phase HPLC)
Type: physicochemical
Settings: 4 h at 37° C.
Method: Binding studies were carried out in a buffer (below) containing an extensive cocktail of inhibitors that was designed to minimize metabolism of both the receptor and the test ligand, i.e., the buffer contained 5 mM EDTA, 0.2% BSA, […] Bestatin, 50 μM Plummer's inhibitor, and 100 μM PMSF.

CC[C@H](C)[C@H](NC(=O)[C@H](Cc1ccc(O)cc1)NC(=O)[C@@H](N)C(C)C)C(=O)N[C@@H](Cc1cnc[nH]1)C(=O)N1CCC[C@H]1C(=O)N[C@@H](Cc1ccccc1)C(=O)O [AIV, Val1 Tyr2 Ile3 His4 Pro5 Phe6]
hydrolysis in binding buffer: less than 10%
